{
  "source": "paper PMC7000700",
  "about": "“RyR1-targeted drug discovery pipeline integrating FRET-based high-throughput screening and human myofiber dynamic Ca^2+ assays” (Scientific Reports, 2020)",
  "biological_target": "RyR2 (Sus scrofa, UniProt A0A5G2R1W3)",
  "sequence (A0A5G2R1W3 20-4900)": "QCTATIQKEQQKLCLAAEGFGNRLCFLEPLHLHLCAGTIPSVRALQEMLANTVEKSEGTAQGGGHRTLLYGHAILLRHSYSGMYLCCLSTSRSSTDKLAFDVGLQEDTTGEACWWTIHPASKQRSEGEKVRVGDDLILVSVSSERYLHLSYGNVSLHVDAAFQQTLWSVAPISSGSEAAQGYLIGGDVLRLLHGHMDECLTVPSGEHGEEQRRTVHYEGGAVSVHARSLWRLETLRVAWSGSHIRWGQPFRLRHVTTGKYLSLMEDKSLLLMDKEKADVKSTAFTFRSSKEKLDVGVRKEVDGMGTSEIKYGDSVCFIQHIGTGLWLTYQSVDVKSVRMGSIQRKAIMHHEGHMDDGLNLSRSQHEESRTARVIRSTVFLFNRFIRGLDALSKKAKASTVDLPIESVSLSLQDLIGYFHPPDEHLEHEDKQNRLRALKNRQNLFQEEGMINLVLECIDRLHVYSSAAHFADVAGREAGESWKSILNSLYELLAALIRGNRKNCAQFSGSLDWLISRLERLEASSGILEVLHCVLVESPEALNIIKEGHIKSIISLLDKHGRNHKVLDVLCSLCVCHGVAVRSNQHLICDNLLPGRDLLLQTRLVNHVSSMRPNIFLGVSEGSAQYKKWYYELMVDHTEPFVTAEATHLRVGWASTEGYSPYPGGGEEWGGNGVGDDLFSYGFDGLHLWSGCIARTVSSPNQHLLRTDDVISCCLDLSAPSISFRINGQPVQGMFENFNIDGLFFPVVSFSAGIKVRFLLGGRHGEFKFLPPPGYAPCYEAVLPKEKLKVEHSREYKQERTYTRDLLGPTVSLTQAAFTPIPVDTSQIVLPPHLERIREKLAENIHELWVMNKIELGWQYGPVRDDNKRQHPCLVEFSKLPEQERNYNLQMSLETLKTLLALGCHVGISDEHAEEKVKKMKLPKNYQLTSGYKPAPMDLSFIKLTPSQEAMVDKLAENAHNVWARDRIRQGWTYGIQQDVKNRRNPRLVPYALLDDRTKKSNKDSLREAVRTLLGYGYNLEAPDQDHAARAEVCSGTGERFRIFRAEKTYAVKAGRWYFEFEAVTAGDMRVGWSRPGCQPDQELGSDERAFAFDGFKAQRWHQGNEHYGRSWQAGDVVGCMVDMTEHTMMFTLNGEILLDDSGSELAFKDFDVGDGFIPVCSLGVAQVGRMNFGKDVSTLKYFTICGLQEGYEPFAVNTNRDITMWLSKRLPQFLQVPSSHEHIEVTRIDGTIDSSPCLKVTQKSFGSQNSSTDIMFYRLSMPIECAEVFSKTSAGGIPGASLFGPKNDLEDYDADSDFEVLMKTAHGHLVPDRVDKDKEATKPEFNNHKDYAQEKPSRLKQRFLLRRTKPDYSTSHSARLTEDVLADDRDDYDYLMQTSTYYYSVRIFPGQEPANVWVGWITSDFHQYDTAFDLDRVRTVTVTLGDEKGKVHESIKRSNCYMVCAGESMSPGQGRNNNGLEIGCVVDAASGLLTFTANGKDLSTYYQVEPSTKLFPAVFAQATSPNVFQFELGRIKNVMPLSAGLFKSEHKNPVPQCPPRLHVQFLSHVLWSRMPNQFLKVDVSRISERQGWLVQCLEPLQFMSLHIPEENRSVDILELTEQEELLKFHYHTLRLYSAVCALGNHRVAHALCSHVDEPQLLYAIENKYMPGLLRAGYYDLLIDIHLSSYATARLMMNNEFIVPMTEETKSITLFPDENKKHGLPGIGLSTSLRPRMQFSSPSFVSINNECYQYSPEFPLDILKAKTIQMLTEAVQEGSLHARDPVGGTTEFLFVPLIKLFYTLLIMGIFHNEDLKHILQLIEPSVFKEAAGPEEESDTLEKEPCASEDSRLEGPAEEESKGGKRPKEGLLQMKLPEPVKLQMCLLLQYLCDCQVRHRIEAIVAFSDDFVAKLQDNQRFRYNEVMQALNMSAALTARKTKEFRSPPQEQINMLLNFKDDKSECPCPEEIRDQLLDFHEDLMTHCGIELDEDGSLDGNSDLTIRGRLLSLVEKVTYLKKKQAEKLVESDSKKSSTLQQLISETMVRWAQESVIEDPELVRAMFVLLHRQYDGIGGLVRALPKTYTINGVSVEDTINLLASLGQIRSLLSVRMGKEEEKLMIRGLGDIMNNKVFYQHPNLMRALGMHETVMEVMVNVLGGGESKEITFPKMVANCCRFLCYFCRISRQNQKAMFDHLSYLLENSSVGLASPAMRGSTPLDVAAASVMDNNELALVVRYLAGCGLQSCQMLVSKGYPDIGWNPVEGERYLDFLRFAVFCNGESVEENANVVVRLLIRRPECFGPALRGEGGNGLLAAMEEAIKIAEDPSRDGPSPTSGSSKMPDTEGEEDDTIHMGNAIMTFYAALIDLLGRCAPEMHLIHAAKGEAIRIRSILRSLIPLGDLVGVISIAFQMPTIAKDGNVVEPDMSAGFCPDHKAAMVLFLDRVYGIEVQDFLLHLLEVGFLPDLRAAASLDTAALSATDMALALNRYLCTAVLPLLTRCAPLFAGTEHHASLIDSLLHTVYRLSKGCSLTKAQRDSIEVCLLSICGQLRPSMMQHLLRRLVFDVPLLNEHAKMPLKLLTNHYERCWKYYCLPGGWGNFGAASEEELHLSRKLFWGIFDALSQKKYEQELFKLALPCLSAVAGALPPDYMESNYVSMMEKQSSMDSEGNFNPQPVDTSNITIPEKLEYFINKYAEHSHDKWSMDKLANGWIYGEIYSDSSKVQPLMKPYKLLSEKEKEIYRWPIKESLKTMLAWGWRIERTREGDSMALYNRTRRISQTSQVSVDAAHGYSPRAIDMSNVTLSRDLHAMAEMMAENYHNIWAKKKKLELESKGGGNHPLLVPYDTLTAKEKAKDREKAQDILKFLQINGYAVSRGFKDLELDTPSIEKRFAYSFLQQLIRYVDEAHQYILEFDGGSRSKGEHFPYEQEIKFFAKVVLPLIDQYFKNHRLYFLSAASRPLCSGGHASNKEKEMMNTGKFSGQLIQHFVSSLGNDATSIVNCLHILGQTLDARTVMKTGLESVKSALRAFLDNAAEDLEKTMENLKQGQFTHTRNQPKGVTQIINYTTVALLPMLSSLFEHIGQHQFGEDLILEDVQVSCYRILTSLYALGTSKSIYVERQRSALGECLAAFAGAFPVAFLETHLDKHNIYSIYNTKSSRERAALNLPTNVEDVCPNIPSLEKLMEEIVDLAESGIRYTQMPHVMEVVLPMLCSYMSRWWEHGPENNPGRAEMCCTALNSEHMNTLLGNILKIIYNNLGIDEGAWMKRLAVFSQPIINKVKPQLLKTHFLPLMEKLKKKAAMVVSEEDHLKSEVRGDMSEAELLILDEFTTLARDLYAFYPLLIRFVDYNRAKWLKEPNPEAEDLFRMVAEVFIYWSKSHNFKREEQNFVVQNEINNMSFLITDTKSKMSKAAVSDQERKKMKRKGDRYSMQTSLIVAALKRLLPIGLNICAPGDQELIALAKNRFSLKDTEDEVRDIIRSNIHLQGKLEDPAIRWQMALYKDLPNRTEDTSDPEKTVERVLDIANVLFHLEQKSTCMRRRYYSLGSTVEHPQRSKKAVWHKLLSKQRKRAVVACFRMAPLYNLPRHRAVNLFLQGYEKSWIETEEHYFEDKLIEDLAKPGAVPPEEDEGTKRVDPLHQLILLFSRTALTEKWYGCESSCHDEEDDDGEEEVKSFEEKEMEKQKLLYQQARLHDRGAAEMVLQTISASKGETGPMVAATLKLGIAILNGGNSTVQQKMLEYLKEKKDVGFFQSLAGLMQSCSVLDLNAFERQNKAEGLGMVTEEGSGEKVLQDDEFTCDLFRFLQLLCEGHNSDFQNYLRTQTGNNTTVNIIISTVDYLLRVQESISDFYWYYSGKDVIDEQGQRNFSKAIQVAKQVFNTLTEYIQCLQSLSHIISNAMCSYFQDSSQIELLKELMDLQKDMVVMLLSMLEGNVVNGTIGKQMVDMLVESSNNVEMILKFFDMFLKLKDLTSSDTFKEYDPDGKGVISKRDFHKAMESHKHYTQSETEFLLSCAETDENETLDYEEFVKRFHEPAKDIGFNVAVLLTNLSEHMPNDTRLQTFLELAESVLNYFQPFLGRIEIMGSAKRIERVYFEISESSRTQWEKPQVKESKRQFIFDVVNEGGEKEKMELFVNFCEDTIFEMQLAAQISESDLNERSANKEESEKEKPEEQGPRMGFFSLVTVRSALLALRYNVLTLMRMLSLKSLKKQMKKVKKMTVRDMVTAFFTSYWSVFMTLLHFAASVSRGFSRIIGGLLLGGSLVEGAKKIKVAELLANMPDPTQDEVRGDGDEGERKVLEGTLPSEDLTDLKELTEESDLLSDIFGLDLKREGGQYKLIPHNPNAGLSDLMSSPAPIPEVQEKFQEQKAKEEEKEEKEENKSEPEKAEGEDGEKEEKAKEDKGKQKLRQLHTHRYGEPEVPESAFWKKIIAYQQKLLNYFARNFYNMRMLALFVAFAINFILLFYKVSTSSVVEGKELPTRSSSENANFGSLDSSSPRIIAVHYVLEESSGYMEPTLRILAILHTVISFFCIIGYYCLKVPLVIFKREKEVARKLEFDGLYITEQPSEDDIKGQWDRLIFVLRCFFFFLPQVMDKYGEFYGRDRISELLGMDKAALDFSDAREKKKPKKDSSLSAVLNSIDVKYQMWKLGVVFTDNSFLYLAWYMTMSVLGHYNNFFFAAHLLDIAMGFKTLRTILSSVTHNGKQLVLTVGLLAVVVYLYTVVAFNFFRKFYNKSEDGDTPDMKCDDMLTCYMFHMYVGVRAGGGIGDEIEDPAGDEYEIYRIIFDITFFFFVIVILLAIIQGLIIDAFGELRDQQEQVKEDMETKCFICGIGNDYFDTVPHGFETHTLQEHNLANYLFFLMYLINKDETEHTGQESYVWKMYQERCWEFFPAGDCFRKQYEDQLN",
  "experiment": "FLT-FRET between D-FKBP and A-CaM bound to RyR2 in cardiac SR membranes (dose-response)",
  "format": "binding, porcine",
  "set-up": "RyR1 in skeletal SR membranes, and RyR2 in cardiac SR membranes; from tissue; host or cells: porcine cardiac left ventricle (crude SR vesicles)",
  "conditions": "RyR2 samples, 30 nM Ca2+",
  "experimental": "Necessary counter-screens to our pathological RyR1 conditions include evaluating compound effects in healthy conditions and on the cardiac isoform, RyR2. Using the same FRET assay as in HTS, we tested the dose response of key Hits from this screen and the previously HTS-identified RyR1 inhibitor, chloroxine, on healthy (5 mM GSH) and pathological (5 mM GSSG) conditions for both RyR1 in skeletal SR membranes, and RyR2 in cardiac SR membranes.\nSkeletal HSR and cardiac CSR (0.4 mg/ml) membranes were independently pre-incubated with 60 nM D-FKBP, for 90 min, at 37 °C, in a solution containing 150 mM KCl, 5 mM GSH, 0.1 mg/mL BSA, 1 µg/mL Aprotinin/Leupeptin, 1 mM DTT and 20 mM PIPES (pH 7.0). To remove unbound D-FKBP, the SR membranes were spun down at 110,000 × g for 20 min, and then resuspended to 1 mg/mL (skeletal HSR) and 2 mg/mL (cardiac CSR) in binding buffer consisting of 150 mM KCl, 5 mM GSSG, 0.1 mg/mL BSA, 1μg/mL Aprotinin/Leupeptin and 20 mM PIPES, pH 7.0. These samples were then incubated with indicated [A-CaM] for 30 min at 22 °C in binding buffer containing 0.065 mM CaCl2 to give 30 nM free Ca^2+ in the presence of 1 mM EGTA (calculated by MaxChelator). This labeled SR sample was applied to the assay plates in 5 μL aliquots using a Multidrop™ Combi reagent dispenser (Thermo Scientific) with a standard-tube. An additional set of the assay plates were loaded with skeletal HSR or cardiac CSR labeled with only D-FKBP (no added A-CaM).\nFLT measurements were conducted in a top-read FLT-PR designed and built by Fluorescence Innovations, Inc[33]. AF488 donor fluorescence was excited with a 473-nm microchip laser from Concepts Research Corporation (Belgium, WI), and emission was acquired with 490-nm long-pass and 517/20-nm band-pass filters (Semrock, Rochester, NY).\nFLT waveforms for each well were fit based on a one-exponential decay function using least-squares minimization global-analysis software (Fluorescence Innovations, Inc.), as previously described[19],[33]. FRET efficiency (E) was determined as the fractional decrease of donor FLT (τD), due to the presence of acceptor fluorophore (τDA), using the following equation:1 E=1−τDA/τD,",
  "data": [
    {"smiles": "Oc1c(Cl)cc(Cl)c2cccnc12", "note": "[chloroxine]", "values": [
      {"measurement": "Effect on FRET", "value": "did not alter FRET"}
    ]}
  ]
}
